Counter-ions that a name gives are not always drawn.
Assays:
[1] = target: T1, furin (endogenous protease) in U20S cells (Homo sapiens, UniProt P09958); assay: Furin cell-based assay (image-based, Golgi-targeted GFP with BMP10 furin/PCSK cleavage site); details: 24-hour incubation, read-out: furin golgi cell pXC50 (converted);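 further: Read-out is mean GFP fluorescence of Golgi puncta per cell by high-content imaging, retained when furin inhibited, over an eleven-point 0.00017–10 µM series, four-parameter fit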
T1 construct: the endogenous protease cleaves GFP; endogenous in cells; host or cells: U2OS cells transduced with a BacMam reporter

[2] = target: T2, Furin (108-574-Tev-Flag-His) enzyme (Homo sapiens, UniProt P09958); assay: Furin enzyme assay; type: biochemical
T2 construct: Furin (108-574-Tev-Flag-His) enzyme was expressed and purified from CHO cells; TEV cleavage site (C); FLAG (C); His (C); made in house; host or cells: CHO cells
Procedure, shortened: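 Compounds ran as 11-point threefold dilutions (0.00017–10 μM final) against 40 pM furin, purified from CHO cells, for 2 h at room temperature. Buffer: 100 mM HEPES pH7.5 with 1 mM CaCl2 and 0.005% Triton X-100. Envision readout. Four-parameter curve gives pXC50.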

T1 sequence (P09958 108-794): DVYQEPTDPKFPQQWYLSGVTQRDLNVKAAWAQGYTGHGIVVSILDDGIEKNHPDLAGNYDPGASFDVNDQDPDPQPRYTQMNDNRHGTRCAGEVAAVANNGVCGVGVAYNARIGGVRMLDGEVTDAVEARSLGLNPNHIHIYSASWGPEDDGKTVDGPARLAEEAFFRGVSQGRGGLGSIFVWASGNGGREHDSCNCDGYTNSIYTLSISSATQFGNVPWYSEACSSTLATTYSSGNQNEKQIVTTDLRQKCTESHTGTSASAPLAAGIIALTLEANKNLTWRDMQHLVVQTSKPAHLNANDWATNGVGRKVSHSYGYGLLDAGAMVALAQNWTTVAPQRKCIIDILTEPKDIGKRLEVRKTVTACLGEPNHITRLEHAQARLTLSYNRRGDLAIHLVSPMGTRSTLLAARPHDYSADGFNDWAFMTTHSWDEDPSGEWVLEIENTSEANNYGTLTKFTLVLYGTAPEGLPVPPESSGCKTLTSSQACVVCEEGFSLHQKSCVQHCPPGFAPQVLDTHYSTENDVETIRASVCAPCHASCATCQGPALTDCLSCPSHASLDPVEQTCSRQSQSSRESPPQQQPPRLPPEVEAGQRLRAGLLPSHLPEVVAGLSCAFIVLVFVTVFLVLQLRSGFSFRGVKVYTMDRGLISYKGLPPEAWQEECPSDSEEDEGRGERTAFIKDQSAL
T2 sequence (P09958 108-574): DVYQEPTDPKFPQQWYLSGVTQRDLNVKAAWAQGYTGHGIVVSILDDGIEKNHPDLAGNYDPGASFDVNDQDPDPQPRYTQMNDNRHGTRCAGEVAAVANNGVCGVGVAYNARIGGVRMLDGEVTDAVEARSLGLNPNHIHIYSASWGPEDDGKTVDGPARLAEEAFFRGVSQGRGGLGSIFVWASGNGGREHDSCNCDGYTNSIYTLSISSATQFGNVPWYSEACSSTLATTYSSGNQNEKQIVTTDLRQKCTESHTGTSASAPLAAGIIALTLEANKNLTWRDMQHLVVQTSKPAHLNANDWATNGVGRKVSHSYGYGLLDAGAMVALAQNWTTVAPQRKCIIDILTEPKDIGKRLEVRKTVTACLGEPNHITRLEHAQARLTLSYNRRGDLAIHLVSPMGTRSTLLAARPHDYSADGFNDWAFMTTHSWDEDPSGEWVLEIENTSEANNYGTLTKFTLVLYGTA

| SMILES | EC50 [1] | furin enzyme pIC50 [2] | IC50 ([2]; read-out: furin enzyme pIC50 (converted)) |
| --- | --- | --- | --- |
| CC(=O)NCC1CCN(Cc2cc(Oc3cnc(N4CCN(C(C)CCS(C)(=O)=O)CC4)nc3)nc(-c3cc(F)cc(Cl)c3)c2)CC1 (stereo not drawn) [Example 372, N-((1-((2-(3-Chloro-5-fluorophenyl)-6-((2-(4-(4-(methylsulfonyl)butan-2-yl)piperazin-1-yl)pyrimidin-5-yl)oxy)pyridin-4-yl)methyl)piperidin-4-yl)methyl)acetamide] | 3.98 nM | 8.8 | – |
| CNC(=O)NCC1CCN(Cc2cc(Oc3cnc(N4CCN(C(C)CCS(C)(=O)=O)CC4)nc3)nc(-c3cc(F)cc(Cl)c3)c2)CC1 (stereo not drawn) [Example 373, 1-((1-((2-(3-chloro-5-fluorophenyl)-6-((2-(4-(4-(methylsulfonyl)butan-2-yl)piperazin-1-yl)pyrimidin-5-yl)oxy)pyridin-4-yl)methyl)piperidin-4-yl)methyl)-3-methylurea] | 5.01 nM | 8.9 | – |
| CN1CCN(c2ccc(Oc3nc(-c4cc(Cl)cc(Cl)c4)cc(CN4CCC(CC(=O)O)CC4)c3F)cn2)CC1 [Example 377, 2-(1-((6-(3,5-Dichlorophenyl)-3-fluoro-2-((6-(4-methylpiperazin-1-yl)pyridin-3-yl)oxy)pyridin-4-yl)methyl)piperidin-4-yl)acetic acid, 4 hydrochloride] | 25.1 nM | 8.6 | – |
| CN1C2CCC1CN(c1ncc(Oc3nc(-c4cc(Cl)cc(Cl)c4)cc(CN4CCC(CC(=O)O)CC4)c3F)cn1)C2 [Example 378, 2-(1-((6-(3,5-dichlorophenyl)-3-fluoro-2-((2-(8-methyl-3,8-diazabicyclo[3.2.1]octan-3-yl)pyrimidin-5-yl)oxy)pyridin-4-yl)methyl)piperidin-4-yl)acetic acid] | 6.31 nM | – | 2 nM |
| Cc1nc(N2CCN(C)CC2)ncc1Oc1nc(-c2cc(Cl)cc(Cl)c2)cc(CN2CCC(CC(=O)O)CC2)c1F [Example 380, 2-(1-((6-(3,5-dichlorophenyl)-3-fluoro-2-((4-methyl-2-(4-methylpiperazin-1-yl)pyrimidin-5-yl)oxy)pyridin-4-yl)methyl)piperidin-4-yl)acetic acid] | 63.1 nM | 9.6 | – |
| O=C(O)CC1CCN(Cc2cc(-c3cc(Cl)cc(Cl)c3)nc(Oc3cnc(N4CC5CCC(C4)N5)nc3)c2F)CC1 [Example 382, 2-(1-((2-((2-(3,8-diazabicyclo[3.2.1]octan-3-yl)pyrimidin-5-yl)oxy)-6-(3,5-dichlorophenyl)-3-fluoropyridin-4-yl)methyl)piperidin-4-yl)acetic acid] | 6.31 nM | 8.6 | – |
| Cc1nc(N2CCN(C)CC2)ccc1Oc1nc(-c2cc(Cl)cc(Cl)c2)cc(CN2CCC(CC(=O)O)CC2)c1F [Example 383, 2-(1-((6-(3,5-dichlorophenyl)-3-fluoro-2-((2-methyl-6-(4-methylpiperazin-1-yl)pyridin-3-yl)oxy)pyridin-4-yl)methyl)piperidin-4-yl)acetic acid] | 63.1 nM | 8.4 | – |
| CN1CCN(c2ccc(Oc3nc(-c4cc(Cl)cc(Cl)c4)cc(CN4CCC(CC(=O)O)CC4)c3F)nn2)CC1 [Example 384, 2-(1-((6-(3,5-dichlorophenyl)-3-fluoro-2-((6-(4-methylpiperazin-1-yl)pyridazin-3-yl)oxy)pyridin-4-yl)methyl)piperidin-4-yl)acetic acid] | 25.1 nM | 8.4 | – |
| Cc1c(CN2CCC(CC(=O)O)CC2)cc(-c2cc(Cl)cc(Cl)c2)nc1Oc1ccc(N2CCN(C)CC2)nc1 [Example 386, 2-(1-((6-(3,5-Dichlorophenyl)-3-methyl-2-((6-(4-methylpiperazin-1-yl)pyridin-3-yl)oxy)pyridin-4-yl)methyl)piperidin-4-yl)acetic acid, 4 hydrochloride] | 10 nM | 8.4 | – |

The next lines start with the values.

| EC50 [1] | furin enzyme pIC50 [2] | IC50 ([2]; read-out: furin enzyme pIC50 (converted)) | SMILES |
| --- | --- | --- | --- |
| 158 nM | 7.9 | – | CN1CCCN(c2ncc(Oc3cc(CN4CCC(CC(=O)O)CC4)cc(-c4cc(F)cc(Cl)c4)n3)cn2)CC1 [Example 374, 2-(1-((2-(3-chloro-5-fluorophenyl)-6-((2-(4-methyl-1,4-diazepan-1-yl)pyrimidin-5-yl)oxy)pyridin-4-yl)methyl)piperidin-4-yl)acetic acid] |
| 251 nM | 7.9 | – | CC(C)N(c1cnc(N2CCN(C)CC2)nc1)c1cc(CN2CCC(CC(=O)O)CC2)cc(-c2cc(Cl)cc(Cl)c2)n1 [Example 375, 2-(1-((2-(3,5-Dichlorophenyl)-6-(isopropyl(2-(4-methylpiperazin-1-yl)pyrimidin-5-yl)amino)pyridin-4-yl)methyl)piperidin-4-yl)acetic acid] |
| 25.1 nM | 8.7 | – | CN1CCN(c2ncc(Oc3cc(-c4cc(Cl)cc(Cl)c4)cc(CN4CCC(CC(=O)O)CC4)c3F)cn2)CC1 [Example 376, 2-(1-((3′,5′-dichloro-4-fluoro-5-((2-(4-methylpiperazin-1-yl)pyrimidin-5-yl)oxy)-[1,1′-biphenyl]-3-yl)methyl)piperidin-4-yl)acetic acid] |
| 20 nM | 8.7 | – | CN1CCN(c2ncc(Oc3nc(-c4cc(Cl)cc(Cl)c4)cc(CN4CCC(CC(=O)O)CC4)c3F)cn2)CC1 [Example 379, 2-(1-((6-(3,5-dichlorophenyl)-3-fluoro-2-((2-(4-methylpiperazin-1-yl)pyrimidin-5-yl)oxy)pyridin-4-yl)methyl)piperidin-4-yl)acetic acid] |
| 10 nM | 8.9 | – | CC(=O)NCC1CCN(Cc2cc(-c3cc(Cl)cc(Cl)c3)nc(Oc3cnc(N4CCN(CCC(C)C(=O)O)CC4)nc3)c2F)CC1 (stereo not drawn) [Example 381, 4-(4-(5-((4-((4-(acetamidomethyl)piperidin-1-yl)methyl)-6-(3,5-dichlorophenyl)-3-fluoropyridin-2-yl)oxy)pyrimidin-2-yl)piperazin-1-yl)-2-methylbutanoic acid] |
| 12.6 nM | 8.4 | – | COC(=O)CCN1CCN(c2ccc(Oc3cc(CN4CCC(CNC(C)=O)CC4)cc(-c4cc(Cl)cc(Cl)c4)n3)cn2)CC1 [Example 385, Methyl 3-(4-(5-((4-((4-(Acetamidomethyl)piperidin-1-yl)methyl)-6-(3,5-dichlorophenyl)pyridin-2-yl)oxy)pyridin-2-yl)piperazin-1-yl)propanoate] |
| 25.1 nM | 8.5 | – | O=C(O)CC1CCN(Cc2cc(Oc3cnc(N4CCN(Cc5cnn[nH]5)CC4)nc3)nc(-c3cc(Cl)cc(Cl)c3)c2)CC1 [Example 387, 2-(1-((2-((2-(4-((1H-1,2,3-Triazol-5-yl)methyl)piperazin-1-yl)pyrimidin-5-yl)oxy)-6-(3,5-dichlorophenyl)pyridin-4-yl)methyl)piperidin-4-yl)acetic acid] |
| 50.1 nM | 8.1 | – | CN1CCN(c2ncc(N(C)c3cc(CN4CCC(CC(=O)O)CC4)cc(-c4cc(Cl)cc(Cl)c4)n3)cn2)CC1 [Example 388, 2-(1-((2-(3,5-Dichlorophenyl)-6-(methyl(2-(4-methylpiperazin-1-yl)pyrimidin-5-yl)amino)pyridin-4-yl)methyl)piperidin-4-yl)acetic acid, 4 hydrochloride] |
| 63.1 nM | 8.2 | – | CCN(c1cnc(N2CCN(C)CC2)nc1)c1cc(CN2CCC(CC(=O)O)CC2)cc(-c2cc(Cl)cc(Cl)c2)n1 [Example 389, 2-(1-((2-(3,5-Dichlorophenyl)-6-(ethyl(2-(4-methylpiperazin-1-yl)pyrimidin-5-yl)amino)pyridin-4-yl)methyl)piperidin-4-yl)acetic acid] |

Source: patent publication US11773078B2, “Furin inhibitors” (Glaxosmithkline Intellectual Property Development Limited, priority 2018, dated 2023)
